According to patent US8680134B2, “Triptans for the treatment of psoriasis” (priority 2009, dated 2014):
Entries after “also recorded” stand apart in the source; their conditions may differ.

Tests used:
[1] = tested on: psoriasis lesions (scales) on elbow; assay: Example 1: topical sumatriptan cream on one elbow, then the other, in a subject with chronic psoriasis; assay type: in vivo, human; conditions: cream 0.04% w/w sumatriptan
Protocol: A subject with chronic psoriasis was administered a cream composed of 0.04% w/w sumatriptan, Dimethicon, Capric Caprylic triglyceride, Mineral oil, Cetyl alcohol & Glyceryl stearate & PEG-75 & Ceteth-20 & Steareth-20, Cetearyl alcohol, Shea butter, Glycerin, Triclosan, Propylene Glycol, Sodium Benzoate, Methylisothiazolinone in water. It was used for five days, once daily, on one elbow. […] No change was observed on psoriasis lesions on the untreated side. The subject was instructed to use the cream once daily on the complementary elbow.

[2] = tested on: psoriasis scales on both elbows; assay: Example 2: sumatriptan cream on left elbow versus carrier cream on right elbow in the same subject; assay type: in vivo, human
Text: A subject with scales on both elbows was recruited. The subject used twice daily for 5 days two different creams: • a.
The abovementioned design eliminates the mild possible therapeutic effect of an emollient on scales and healing. The mode of treatment eliminates as well the possibility of self healing or placebo effect.

## CNS(=O)(=O)Cc1ccc2[nH]cc(CCN(C)C)c2c1 [sumatriptan, 1-[3-(2-Dimethylaminoethyl)-1H-indol-5-yl]-N-methyl-methanesulfonamide]
[1]; once daily for five days, one elbow
  skin condition of the treated elbow: Healthy skin with normalization was noted
[1]; once daily for five days, one elbow, person with chronic psoriasis
  scales on the treated elbow: disappearance of scales was prominent on the treated side
[1]; once daily, after scale disappearance
  skin normalization on the complementary elbow: skin turned into normal within the next week
[1]; once daily, complementary elbow
  time to scale disappearance on the complementary elbow: three
[2]; cream 0.04% w/w sumatriptan (40 mg/100 ml), twice daily, four days after start of use, person
  scales and skin condition of the treated (left) elbow: Disappearance of scales and skin return to normal is noted; also recorded: normalized the skin
[2]; cream 0.04% w/w sumatriptan, left elbow
  duration of remission of psoriasis on the treated elbow: about one
[2]; cream 0.04% w/w sumatriptan, left elbow, counted after the first four days
  additional time to completed skin normalization: 4 to 5 days
